Experiments:
Experiment in all cases: fitness (endpoint OD595 vs no drug) (fraction); higher = more growth
S. aureus Newman = conditions: main component drawn
In short: (§1)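 Each well of a 384-well plate received 30 µl of culture at OD595 0.01, or 55 µl for S. pneumoniae. TSB, LB Lennox or CY served as media at 37 °C. OD595 was taken every 30 min for 14 h and corrected by subtracting the first reading. Fitness is the optical density at stationary-phase entry divided by the robust mean of no-drug controls, capped at 1.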

B. subtilis 168 = conditions: main component drawn
In short: as §1

S. aureus DSM 20231 = system: S. aureus DSM 20231
In short: as §1

S. pneumoniae D39V = system: S. pneumoniae D39V
In short: as §1

CC[C@H](C)[C@H](N)C1=N[C@H](C(=O)N[C@@H](CC(C)C)C(=O)N[C@H](CCC(=O)O)C(=O)N[C@H](C(=O)N[C@H]2CCCCNC(=O)[C@H](CC(N)=O)NC(=O)[C@@H](CC(=O)O)NC(=O)[C@H](Cc3cnc[nH]3)NC(=O)[C@@H](Cc3ccccc3)NC(=O)[C@H]([C@@H](C)CC)NC(=O)[C@@H](CCCN)NC2=O)[C@@H](C)CC)CS1 [Bacitracin] + CC1(C)S[C@@H]2[C@H](NC(=O)Cc3ccccc3)C(=O)N2[C@H]1C(=O)O [Penicillin G]
fitness, S. aureus Newman
Conditions	first compound 18.75 µg/mL	first compound 37.5 µg/mL	first compound 75 µg/mL
partner 0.0195 µg/mL	0.642	0.35	0.018
partner 0.039 µg/mL	0.698	0.2	0.0199
partner 0.078 µg/mL	0.69	–	0.0358

CC[C@H](C)[C@H](N)C1=N[C@H](C(=O)N[C@@H](CC(C)C)C(=O)N[C@H](CCC(=O)O)C(=O)N[C@H](C(=O)N[C@H]2CCCCNC(=O)[C@H](CC(N)=O)NC(=O)[C@@H](CC(=O)O)NC(=O)[C@H](Cc3cnc[nH]3)NC(=O)[C@@H](Cc3ccccc3)NC(=O)[C@H]([C@@H](C)CC)NC(=O)[C@@H](CCCN)NC2=O)[C@@H](C)CC)CS1 [Bacitracin] + CN(C)[C@@H]1C(O)=C(C(N)=O)C(=O)[C@@]2(O)C(O)=C3C(=O)c4c(O)ccc(Cl)c4[C@@](C)(O)[C@H]3C[C@@H]12 [Chlortetracycline]
fitness, B. subtilis 168
Conditions	first compound 37.5 µg/mL	first compound 75 µg/mL	first compound 150 µg/mL
partner 0.0475 µg/mL	0.865	0.856	0.723
partner 0.095 µg/mL	0.753	0.68	0.497
partner 0.19 µg/mL	–	–	0.0687

CC[C@H](C)[C@H](N)C1=N[C@H](C(=O)N[C@@H](CC(C)C)C(=O)N[C@H](CCC(=O)O)C(=O)N[C@H](C(=O)N[C@H]2CCCCNC(=O)[C@H](CC(N)=O)NC(=O)[C@@H](CC(=O)O)NC(=O)[C@H](Cc3cnc[nH]3)NC(=O)[C@@H](Cc3ccccc3)NC(=O)[C@H]([C@@H](C)CC)NC(=O)[C@@H](CCCN)NC2=O)[C@@H](C)CC)CS1 [Bacitracin] + CO[C@@]12[C@H](COC(N)=O)C3=C(C(=O)C(C)=C(N)C3=O)N1C[C@@H]1N[C@@H]12 [Mitomycin C]
fitness, S. aureus Newman
Conditions	first compound 18.75 µg/mL	first compound 37.5 µg/mL	first compound 75 µg/mL
partner 0.0156 µg/mL	0.56	–	0.0457
partner 0.0312 µg/mL	0.419	0.0317	0.0152
partner 0.0625 µg/mL	0.229	0.0144	0

CC[C@H](C)[C@H](N)C1=N[C@H](C(=O)N[C@@H](CC(C)C)C(=O)N[C@H](CCC(=O)O)C(=O)N[C@H](C(=O)N[C@H]2CCCCNC(=O)[C@H](CC(N)=O)NC(=O)[C@@H](CC(=O)O)NC(=O)[C@H](Cc3cnc[nH]3)NC(=O)[C@@H](Cc3ccccc3)NC(=O)[C@H]([C@@H](C)CC)NC(=O)[C@@H](CCCN)NC2=O)[C@@H](C)CC)CS1 [Bacitracin] + N[C@@H]1CONC1=O [Cycloserine D]
fitness
Conditions	first compound 18.75 µg/mL	first compound 37.5 µg/mL	first compound 75 µg/mL	first compound 150 µg/mL
B. subtilis 168, partner 0.125 µg/mL	–	0.893	0.89	0.737
B. subtilis 168, partner 0.25 µg/mL	–	0.894	0.898	–
B. subtilis 168, partner 0.5 µg/mL	–	0.858	0.858	–
S. aureus Newman, partner 0.375 µg/mL	0.761	0.282	0.0299	–
S. aureus Newman, partner 0.75 µg/mL	0.761	0.28	0.0202	–
S. aureus Newman, partner 1.5 µg/mL	0.74	0.202	0.0116	–

CC[C@H](C)[C@H](N)C1=N[C@H](C(=O)N[C@@H](CC(C)C)C(=O)N[C@H](CCC(=O)O)C(=O)N[C@H](C(=O)N[C@H]2CCCCNC(=O)[C@H](CC(N)=O)NC(=O)[C@@H](CC(=O)O)NC(=O)[C@H](Cc3cnc[nH]3)NC(=O)[C@@H](Cc3ccccc3)NC(=O)[C@H]([C@@H](C)CC)NC(=O)[C@@H](CCCN)NC2=O)[C@@H](C)CC)CS1 [Bacitracin] + O=C(O)[C@H]1/C(=C/CO)O[C@@H]2CC(=O)N21 [Clavulanic acid]
fitness, B. subtilis 168
Conditions	partner 1.5 µg/mL	partner 3 µg/mL	partner 6 µg/mL
first compound 37.5 µg/mL	0.906	0.86	0.795
first compound 75 µg/mL	0.915	0.838	0.734

fitness, S. aureus Newman, one replicate
Conditions	first compound 18.75 µg/mL	first compound 37.5 µg/mL	first compound 75 µg/mL
partner 0.03125 µg/mL	0.682	0.298	0.0064
partner 0.0625 µg/mL	0.673	0.251	0.0152
partner 0.125 µg/mL	0.686	0.219	0.0264

CC(=O)NC[C@H]1CN(c2ccc(N3CCOCC3)c(F)c2)C(=O)O1 [Linezolid] + CO[C@@]12[C@H](COC(N)=O)C3=C(C(=O)C(C)=C(N)C3=O)N1C[C@@H]1N[C@@H]12 [Mitomycin C]
Conditions	fitness
S. aureus DSM 20231, first compound 0.125 µg/mL, partner 0.0156 µg/mL	0.681
S. aureus DSM 20231, first compound 0.125 µg/mL, partner 0.0312 µg/mL	0.68
S. aureus DSM 20231, first compound 0.125 µg/mL, partner 0.0625 µg/mL	0.531
S. aureus DSM 20231, first compound 0.25 µg/mL, partner 0.0156 µg/mL	0.466
S. aureus DSM 20231, first compound 0.25 µg/mL, partner 0.0312 µg/mL	0.458
S. aureus DSM 20231, first compound 0.25 µg/mL, partner 0.0625 µg/mL	0.296
S. aureus DSM 20231, first compound 0.5 µg/mL, partner 0.0156 µg/mL	0.141
S. aureus DSM 20231, first compound 0.5 µg/mL, partner 0.0312 µg/mL	0.105
S. aureus DSM 20231, first compound 0.5 µg/mL, partner 0.0625 µg/mL	0.0726
S. pneumoniae D39V, first compound 0.105 µg/mL, partner 0.002 µg/mL	0.745
S. pneumoniae D39V, first compound 0.105 µg/mL, partner 0.004 µg/mL	0.669
S. pneumoniae D39V, first compound 0.105 µg/mL, partner 0.008 µg/mL	0.524
S. pneumoniae D39V, first compound 0.2 µg/mL, partner 0.001075 µg/mL	0.745
S. pneumoniae D39V, first compound 0.2 µg/mL, partner 0.00215 µg/mL	0.733
S. pneumoniae D39V, first compound 0.2 µg/mL, partner 0.0043 µg/mL	0.634
S. pneumoniae D39V, first compound 0.21 µg/mL, partner 0.002 µg/mL	0.563
S. pneumoniae D39V, first compound 0.21 µg/mL, partner 0.004 µg/mL	0.563
S. pneumoniae D39V, first compound 0.21 µg/mL, partner 0.008 µg/mL	0.397
S. pneumoniae D39V, first compound 0.4 µg/mL, partner 0.001075 µg/mL	0.618
S. pneumoniae D39V, first compound 0.4 µg/mL, partner 0.00215 µg/mL	0.626
S. pneumoniae D39V, first compound 0.4 µg/mL, partner 0.0043 µg/mL	0.366
S. pneumoniae D39V, first compound 0.42 µg/mL, partner 0.002 µg/mL	0.414
S. pneumoniae D39V, first compound 0.42 µg/mL, partner 0.004 µg/mL	0.389
S. pneumoniae D39V, first compound 0.42 µg/mL, partner 0.008 µg/mL	0.23
S. pneumoniae D39V, first compound 0.8 µg/mL, partner 0.001075 µg/mL	0.316
S. pneumoniae D39V, first compound 0.8 µg/mL, partner 0.00215 µg/mL	0.323
S. pneumoniae D39V, first compound 0.8 µg/mL, partner 0.0043 µg/mL	0.258

S. aureus DSM 20231, first compound 1 µg/mL, one replicate
Conditions	fitness
partner 0.0156 µg/mL	0.0176
partner 0.0312 µg/mL	0.0107
partner 0.0625 µg/mL	0.0169

Source: the supplement of paper PMC10627819
